Assay results from patent publication US9192635B2.

Assay: Hydrogen peroxide retention after desiccation and rehydration (peroxide check strips)
Type: physicochemical
Conditions: 1-10 g extract in 20 ml 35% hydrogen peroxide, heated at 80° C. to 5 ml, rehydrated; colorimetric strips

## Oc1ccc(C=Cc2cc(O)cc(O)c2)cc1 [resveratrol, Resveratrol]
  peroxide retention capability: relatively less ability to form stable perhydrates
